# Entries after “also recorded” stand apart in the source; their conditions may differ.
# What was measured:
# B16F10 melanoma cells = settings: cited from earlier work; for tumor lung colonization (wet weight of tumor aggregates) versus saline controls: fluoxetine 12, 16, 20 or 40 mg/m^2, amitriptyline 30, 60 or 75 mg/m^2, from 24 hours after i.v. inoculation; for median survival: tumor cells injected i.v., all groups
# A375 melanoma cells [1] = settings: stated jointly for B16BL6 and A375
# B16BL6 melanoma cells = settings: stated jointly for B16BL6 and A375
# 3T3 adipocytes = assay: Lipid accumulation in adipocytes differentiated from NIH 3T3 fibroblasts, Oil Red-O staining; assay type: cell-based; settings: 5 μM and 10 μM, 10 days
# Experimental: The relative absorbance was calculated as the ratio of absorbance of each treatment to the absorbance of the nondifferentiated (Ndiff) cells.
# After 10 days the lipid content was determined by staining the cells with Oil Red-O and determining the intensity of the red color in an uv spectrophotometer. Experiments were done in triplicate.
# B16BL6 melanoma = assay: Established subcutaneous B16BL6 melanoma in water- or ethanol-drinking C57BL6 mice: tumor growth, metastasis, body weight, intake, body fat; settings: for Perigonadal Fat (mg ± SE): necropsy; for Carcass Fat (% ± SE): weight of lipid/dry carcass weight x 100
# Experimental: In an effort to approximate the effect of SSRIs on melanomas in clinical situations, administration of the agents began after tumor growth was apparent.
# Fourteen to 16 C57BL6 mice per group were inoculated s.c. with 1×10^6 B16BL6 melanoma cells. […] The test agent and saline control were injected daily subcutaneously (s.c.) into the gluteal region opposite from the site of tumor inoculation, approximately two hours before the dark cycle. […] At 21 days the animals were sacrificed.
# Female C57/BL6 mice consumed either water or 20% w/v ethanol ad libitum for six weeks prior to inoculation with of melanoma cells. The mice were injected with 1×10^6 tumor cells subcutaneously (s.c.) into the dorsal hip.
# Two weeks after inoculation, the animals were divided into four treatment groups: (1) water drinking or (2) ethanol drinking, both groups injected with saline control for seven days; (3) water drinking or (4) ethanol drinking. […] Tumor growth was measured with calipers on days 14, 16, 18, and 20. Mice were killed on day 21 and necropsied.
# Perigonadal and carcass fat were determined. Body weight, food consumption, and fluid-consumption were measured continually throughout the experiment.
# Perigonadal fat, a measure of body fat content, was removed at necropsy and weighed. Mice were then dehydrated at 60° C. until they reached constant weight. They were then pulverized in a Bel-Art Micro-Mill. The whole carcass was transferred to a soxhlet extractor and the lipid was extracted with chloroform:methanol (2:1) for 24 hours. The extraction cone containing the carcass was removed, air-dried to evaporate the chloroform and methanol, and then weighed. The difference in weight was the weight of carcass lipid. The percentage of carcass lipid was calculated as the weight of lipid/dry carcass weight×100.
# SKMel-28 cells = assay: Viability of melanoma cells, crystal violet assay; assay type: cell-based, human; settings: SKMel-28, preliminary data from one study
# Experimental: (§1) Viability was assessed by the crystal violet assay. […] Values are mean±SE for three experiments. […] Values are for one experiment.
# (§2) A375 and SKMel-28 cells were seeded at a density of 20,000 cells in one ml DMEM+10% FBS per well in 24 well plates and cultured for 24 hours. […] The culture plates were removed and the medium from each well was discarded. The cells were fixed with acetic acid:methanol (1:3) for one hour at room temperature. The fixed cells were washed with 80% methanol and stained with crystal violet (0.5%) for one hour. Crystal violet dye is taken up proportionately depending upon the number of cells that are adhered to the plate. Excess dye is removed by washing plates in running distilled water. After the plates were dry, the dye was solubilized in 10% acetic acid. Aliquots of solubilized dye from each well were transferred to a 96 well plate and the absorbance of the color was measured at 585 nm. The effects were compared relative to untreated controls.
# [2] = 10 mg/kg/day injected i.v. or continuously infused subcutaneously via pump, mice; cited from earlier work
# A375 melanoma cells [3] = test system: A375 melanoma cells
# Experimental: as §1, §2
# metastatic melanoma = settings: single agent; cited from earlier work
# [4] = Ethanol-drinking mice (20% w/v), 10 mg/kg/day s.c. for 7 days
# [5] = Water-drinking mice, 10 mg/kg/day s.c. for 7 days
structure (smiles),measurement,setting,value
CN(C)CCC=C1c2ccccc2CCc2ccccc21 [amitriptyline],tumor lung colonization (wet weight of tumor aggregates) versus saline controls,B16F10 melanoma cells,increased tumor lung colonization
same,median survival,B16F10 melanoma cells,17 days
CNCCC(Oc1ccc(C(F)(F)F)cc1)c1ccccc1 (stereo not shown) [fluoxetine],fluoxetine level that completely inhibited the incorporation of isotope,A375 melanoma cells [1],about 30 uM
same,fluoxetine level that completely inhibited the incorporation of isotope,B16BL6 melanoma cells,about 30 uM
same,lipid content of differentiated adipocytes,3T3 adipocytes,increases lipid content
same,tumor growth rate,"B16BL6 melanoma; 10 mg/kg/day s.c. for 7 days, irrespective of water or ethanol consumption",significantly decreased
same,decrease in wet weight of tumors at necropsy versus saline-injected mice,"B16BL6 melanoma; 10 mg/kg/day s.c. for 7 days, necropsy day 21",greater than 2 fold
same,Perigonadal Fat (mg ± SE),B16BL6 melanoma; [4],192 ± 53 mg
same,Carcass Fat (% ± SE),B16BL6 melanoma; [4],31.7 ± 2.3 %
same,Perigonadal Fat (mg ± SE),B16BL6 melanoma; [5],53 ± 25 mg
same,Carcass Fat (% ± SE),B16BL6 melanoma; [5],25.8 ± 1.4%
same,tumor volume,"B16BL6 melanoma; daily s.c. injection from day 14 to day 21, water- and ethanol-consuming mice",decreased tumor volume
same,"corrected body weight (total body weight minus tumor wet weight), test versus control animals",B16BL6 melanoma; day 21,nearly identical
same,toxicity of the effective dose,"B16BL6 melanoma; mouse, in vivo",non toxic
same,number and frequency of metastases,"B16BL6 melanoma; subcutaneous B16BL6 tumors, 10 mg/kg/day s.c. for 7 days, 10 mg/kg/day",inhibit metastasis; also recorded: greatly reduced
same,food intake,"B16BL6 melanoma; water-drinking mice, experimental period",does not alter food intake
same,major toxicity range,SKMel-28 cells,8 to 16 µM
same,approximate serum level,[2],100 to 280 ng/mL
same,cell viability at 16 μM,"A375 melanoma cells [3]; A375, 16 μM",almost all the cells were dead
same,concentration at which drug toxicity is evident,"A375 melanoma cells [3]; A375, crystal violet",4 µM
same,concentration range of more pronounced toxicity,"A375 melanoma cells [3]; A375, crystal violet",8 to 16 µM
same,time within which toxicity is exerted,"A375 melanoma cells [3]; A375 and SKMel-28, crystal violet",≤ 24 h
same,tumor lung colonization (wet weight of tumor aggregates) versus saline controls,B16F10 melanoma cells,increased tumor lung colonization
same,median survival,B16F10 melanoma cells,17 days
"CN(C)/N=N/c1[nH]cnc1C(N)=O [DTIC, dimethyltriazenoimidazole carboxymide]",share of cases of metastatic melanoma with partial remission,metastatic melanoma,about one-quarter

# From US6927223B1, “Use of serotonin agents for adjunct therapy in the treatment of cancer” (priority 2000, dated 2005)
